Laboratory results from US20220331303A1, “USE OF AN OREXIN 2 RECEPTOR AGONIST FOR THE TREATMENT OF EXCESSIVE SLEEPINESS” (Takeda Pharmaceutical Company Limited, priority 2019, published 2022).
Values joined by “and” are separate entries in the source; they are usually repeats but may differ in a detail not shown here. Identical values can stand only once.

System: sleep-deprived healthy volunteers
Assay: Maintenance of wakefulness test (MWT) in sleep-deprived healthy volunteers
Assay type: in vivo, human
Protocol: The primary objective of this study was to determine the effect of Compound A (methyl (2R,3S)-3-((methylsulfonyl)amino)-2-(((cis-4-phenylcyclohexyl)oxy)methyl)piperidine-1-carboxylate), 44 mg (low dose [LD]) and 112 mg (high dose [HD]), after a single IV dose (compared to placebo) on promoting wakefulness as measured by sleep latency on the MWT (performed at approximately 2, 4, 6, and 8 hours post-dosing starting at approximately 1:00 AM and then at approximate times of 3:00, 5:00, and 7:00 AM) in sleep-deprived healthy volunteers.
This was a phase 1b, single-center, randomized, double-blind, double-dummy, placebo- and active-controlled, 4-period Williams design crossover study to evaluate the PK, PD, and safety of Compound A in sleep-deprived healthy volunteers. Compound A was administered as a 9-hour IV infusion.
Healthy adult male subjects aged 18 to 40 years, inclusive, who satisfied the inclusion and exclusion criteria were enrolled in the trial. On Day 1 of treatment period 1, eligible subjects were equally randomized to 4 treatment sequence groups (sequence 1 to 4) which defined the order of administration for Compound A LD, Compound A HD (both delivered as a 9-hour IV infusion), modafinil 300 mg, and placebo.
During the day before dosing on Day 1, participants were administered the KSS at scheduled timepoints. A practice MWT session was performed on Day 1 treatment period 1 (only once during the entire study) to familiarize subjects with the procedures. Study drug was administered in the clinic in the evening on Day 1 of each treatment period. Subjects underwent the MWT and KSS at specified timepoints after the start of the infusion. Subjects were required to stay awake between the MWT tests. Following completion of the IV infusion on Day 2, subjects underwent an additional MWT test. When the final MWT test and cognitive testing were completed, subjects were allowed to sleep (recovery sleep) for approximately 6 hours. PSG recording was collected during this time. Subjects were discharged from the unit after completion on Day 2 with continuing actigraphy upon discharge (to begin on Day −6 before the next treatment period). The interval between each subsequent treatment period was at least 7 days to ensure that the subject's circadian rhythm had returned to a normal cycle. Subject's vital signs, including BP, were monitored during the dosing and testing period. Blood samples for determination of Compound A plasma concentrations were collected at specified timepoints on Days 1 and 2 of each treatment period. Subjects completed the Columbia-Suicide Severity Rating Scale (C-SSRS) during screening, before study drug administration, and before discharge on Day 2 of each treatment period.
Primary endpoint: Latency for each MWT, defined as time to sleep onset.

[1] = Compound A 44 mg (LD), 2 hours post infusion start
[2] = Compound A 44 mg (LD), 4 hours post infusion start
[3] = Compound A 44 mg (LD), 6 hours post infusion start
[4] = Compound A 44 mg (LD), 8 hours post infusion start
[5] = Compound A 44 mg (LD), average overall during infusion
[6] = Compound A 44 mg (LD, printed ED), 2 hours post infusion start
[7] = Compound A 44 mg (LD, printed ED), 4 hours post infusion start
[8] = Compound A 44 mg (LD, printed ED), 8 hours post infusion start
[9] = Compound A 44 mg, after the end of infusion (1 hour post end of infusion)
[10] = Compound A 112 mg (HD), 2 hours post infusion start
[11] = Compound A 112 mg (HD), 4 hours post infusion start

COC(=O)N1CCC[C@H](NS(C)(=O)=O)[C@@H]1CO[C@H]1CC[C@@H](c2ccccc2)CC1 [Compound A, methyl (2R,3S)-3-((methylsulfonyl)amino)-2-(((cis-4-phenylcyclohexyl)oxy)methyl)piperidine-1-carboxylate]
Average total wake time (MWT), LS mean difference vs placebo (Compound A 44 mg): 16.36 min | Total sleep time (MWT) compared to placebo (Compound A 44 mg): not significantly different than placebo | Latency to Sleep Onset on MWT, LS Mean [1]: 35.74 min | Latency to Sleep Onset on MWT, LS Mean Difference vs placebo [1]: 20.06 min | Stage N1 Duration (MWT), LS Mean [1]: 0.13 min | Stage N1 Duration (MWT), LS Mean Difference vs placebo [1]: -1.02 min | Stage N2 Duration (MWT), LS Mean [1]: 0.24 min | Stage N2 Duration (MWT), LS Mean Difference vs placebo [1]: -0.61 min | Total Microsleeps (MWT), LS Mean [1]: 0.38 | Total Microsleeps (MWT), LS Mean Difference vs placebo [1]: −1.42 | Duration Total Microsleeps (MWT), LS Mean [2]: 10.39 s | Duration Total Microsleeps (MWT), LS Mean Difference vs placebo [2]: -1.91 s | Stage N1 Duration (MWT), LS Mean [2]: 0.52 min | Stage N1 Duration (MWT), LS Mean Difference vs placebo [2]: -1.13 min | Stage N2 Duration (MWT), LS Mean [2]: 0.51 min | Stage N2 Duration (MWT), LS Mean Difference vs placebo [2]: -0.64 min | Total Microsleeps (MWT), LS Mean [2]: 2.21 | Total Microsleeps (MWT), LS Mean Difference vs placebo [2]: −0.14 | Duration Total Microsleeps (MWT), LS Mean [3]: 11.84 s | Duration Total Microsleeps (MWT), LS Mean Difference vs placebo [3]: 4.44 s | Latency to Sleep Onset on MWT, LS Mean [3]: 20.71 min | Latency to Sleep Onset on MWT, LS Mean Difference vs placebo [3]: 14.56 min | Stage N1 Duration (MWT), LS Mean [3]: 1.80 min | Stage N1 Duration (MWT), LS Mean Difference vs placebo [3]: 0.65 min | Stage N2 Duration (MWT), LS Mean [3]: 2.63 min | Stage N2 Duration (MWT), LS Mean Difference vs placebo [3]: 2.13 min | Total Microsleeps (MWT), LS Mean [3]: 2.32 | Total Microsleeps (MWT), LS Mean Difference vs placebo [3]: 1.07 | Latency to Sleep Onset on MWT, LS Mean [4]: 13.13 min | Latency to Sleep Onset on MWT, LS Mean Difference vs placebo [4]: 9.60 min | Stage N1 Duration (MWT), LS Mean [4]: 1.57 min | Stage N1 Duration (MWT), LS Mean Difference vs placebo [4]: 0.42 min | Stage N2 Duration (MWT), LS Mean [4]: 3.74 min | Stage N2 Duration (MWT), LS Mean Difference vs placebo [4]: 2.64 min | Total Microsleeps (MWT), LS Mean [4]: 2.10 | Total Microsleeps (MWT), LS Mean Difference vs placebo [4]: 0.80 | Duration Total Microsleeps (MWT), LS Mean [5]: 8.89 s | Duration Total Microsleeps (MWT), LS Mean Difference vs placebo [5]: -0.18 s | Latency to Sleep Onset on MWT, LS Mean [5]: 25.40 min and 25.40 (1.955) min | Latency to Sleep Onset on MWT, LS Mean Difference vs placebo [5]: 16.79 min and 16.8 min and 16.79 (2.682) min | Stage N1 Duration (MWT), LS Mean [5]: 1.01 min | Stage N1 Duration (MWT), LS Mean Difference vs placebo [5]: -0.27 min | Stage N2 Duration (MWT), LS Mean [5]: 1.78 min | Stage N2 Duration (MWT), LS Mean Difference vs placebo [5]: 0.88 min | Total Microsleeps (MWT), LS Mean [5]: 1.75 | Total Microsleeps (MWT), LS Mean Difference vs placebo [5]: 0.08 | Duration Total Microsleeps (MWT), LS Mean [6]: 1.61 s | Duration Total Microsleeps (MWT), LS Mean Difference vs placebo [6]: -7.19 s | Latency to Sleep Onset on MWT, LS Mean [7]: 32.04 min | Latency to Sleep Onset on MWT, LS Mean Difference vs placebo [7]: 22.94 min | Duration Total Microsleeps (MWT), LS Mean [8]: 11.72 s | Duration Total Microsleeps (MWT), LS Mean Difference vs placebo [8]: 3.92 s | Latency to Sleep Onset on MWT, LS Mean (SE) [9]: 2.49 (2.241) | Latency to Sleep Onset on MWT, LS Mean Difference vs placebo, Estimate (SE) [9]: −2.16 (2.752) | Average total wake time (MWT), LS mean difference vs placebo (Compound A 112 mg): 29.59 min | Sleep latency on the MWT during infusion, stayed across several sessions (Compound A 112 mg): 40 min | Total sleep time (MWT), LS mean difference vs placebo (Compound A 112 mg): -2.56 min | Duration Total Microsleeps (MWT), LS Mean [10]: -0.02 s | Duration Total Microsleeps (MWT), LS Mean Difference vs placebo [10]: -8.82 s | Latency to Sleep Onset on MWT, LS Mean [10]: 40.02 min | Latency to Sleep Onset on MWT, LS Mean Difference vs placebo [10]: 24.35 min | Stage N1 Duration (MWT), LS Mean [10]: -0.04 min | Stage N1 Duration (MWT), LS Mean Difference vs placebo [10]: -1.19 min | Stage N2 Duration (MWT), LS Mean [10]: 0.00 min | Stage N2 Duration (MWT), LS Mean Difference vs placebo [10]: -0.85 min | Total Microsleeps (MWT), LS Mean [10]: 0.00 | Total Microsleeps (MWT), LS Mean Difference vs placebo [10]: −1.80 | Duration Total Microsleeps (MWT), LS Mean [11]: -0.02 s | Duration Total Microsleeps (MWT), LS Mean Difference vs placebo [11]: -12.3 s | Latency to Sleep Onset on MWT, LS Mean [11]: 40.05 min | Latency to Sleep Onset on MWT, LS Mean Difference vs placebo [11]: 30.95 min | Stage N1 Duration (MWT), LS Mean [11]: -0.04 min | Stage N1 Duration (MWT), LS Mean Difference vs placebo [11]: -1.69 min | Stage N2 Duration (MWT), LS Mean [11]: 0.00 min | Stage N2 Duration (MWT), LS Mean Difference vs placebo [11]: -1.15 min | Total Microsleeps (MWT), LS Mean [11]: 0.00 | Total Microsleeps (MWT), LS Mean Difference vs placebo [11]: −2.35
